Laboratory results from the supplement of paper PMC12076712.

Assays:
Assay in all cases: pIC50, kinobeads binding competition
Conditions in all cases: cell material: Jurkat lysate
UniProt O43318 = molecular target: T1, UniProt O43318
T1 sequence (whole entry): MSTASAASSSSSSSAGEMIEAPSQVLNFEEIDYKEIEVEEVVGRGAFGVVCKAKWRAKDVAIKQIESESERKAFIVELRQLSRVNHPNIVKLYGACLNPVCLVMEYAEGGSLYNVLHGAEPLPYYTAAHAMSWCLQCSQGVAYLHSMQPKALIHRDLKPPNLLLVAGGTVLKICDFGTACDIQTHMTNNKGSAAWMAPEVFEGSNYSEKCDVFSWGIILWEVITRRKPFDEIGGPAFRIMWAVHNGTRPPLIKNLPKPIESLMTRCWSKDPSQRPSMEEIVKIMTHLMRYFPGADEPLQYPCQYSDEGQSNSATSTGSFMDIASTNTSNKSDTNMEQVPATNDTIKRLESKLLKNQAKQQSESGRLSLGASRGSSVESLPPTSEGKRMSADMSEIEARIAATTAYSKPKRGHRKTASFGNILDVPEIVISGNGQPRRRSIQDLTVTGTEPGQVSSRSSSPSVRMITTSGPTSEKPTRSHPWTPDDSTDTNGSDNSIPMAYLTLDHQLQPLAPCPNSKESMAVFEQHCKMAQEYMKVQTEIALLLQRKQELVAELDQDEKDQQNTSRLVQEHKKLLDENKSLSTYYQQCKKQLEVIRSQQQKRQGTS

MERTK = molecular target: T2, MERTK (UniProt Q12866)
T2 sequence (whole entry): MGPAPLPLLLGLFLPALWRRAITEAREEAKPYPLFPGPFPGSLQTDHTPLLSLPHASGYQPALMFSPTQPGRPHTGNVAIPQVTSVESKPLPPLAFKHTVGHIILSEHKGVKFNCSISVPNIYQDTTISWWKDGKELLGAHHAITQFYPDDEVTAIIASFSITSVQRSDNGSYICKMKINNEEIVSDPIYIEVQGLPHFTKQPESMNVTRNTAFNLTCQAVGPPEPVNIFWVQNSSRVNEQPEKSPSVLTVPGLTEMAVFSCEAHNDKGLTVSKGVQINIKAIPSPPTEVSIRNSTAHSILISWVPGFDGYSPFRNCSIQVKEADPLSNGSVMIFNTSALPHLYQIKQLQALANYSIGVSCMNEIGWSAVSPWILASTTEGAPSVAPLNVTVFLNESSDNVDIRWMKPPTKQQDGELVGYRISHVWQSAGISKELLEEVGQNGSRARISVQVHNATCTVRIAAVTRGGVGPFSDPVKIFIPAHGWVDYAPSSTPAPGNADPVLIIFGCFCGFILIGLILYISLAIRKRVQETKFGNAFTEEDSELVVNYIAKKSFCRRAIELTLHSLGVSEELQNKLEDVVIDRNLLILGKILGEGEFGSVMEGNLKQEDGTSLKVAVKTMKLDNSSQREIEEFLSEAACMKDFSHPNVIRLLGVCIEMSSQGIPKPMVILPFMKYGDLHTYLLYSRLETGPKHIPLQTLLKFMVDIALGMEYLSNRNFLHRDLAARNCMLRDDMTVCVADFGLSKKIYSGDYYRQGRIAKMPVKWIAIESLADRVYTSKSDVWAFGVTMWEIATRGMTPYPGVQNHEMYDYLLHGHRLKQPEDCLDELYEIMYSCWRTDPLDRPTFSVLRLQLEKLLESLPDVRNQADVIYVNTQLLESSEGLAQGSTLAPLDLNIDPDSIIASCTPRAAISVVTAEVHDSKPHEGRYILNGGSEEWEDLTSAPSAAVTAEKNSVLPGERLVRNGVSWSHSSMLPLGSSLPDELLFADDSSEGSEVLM

PRKCB = PRKCB (UniProt P05771)
UniProt Q13188 = molecular target: T3, UniProt Q13188
T3 sequence (whole entry): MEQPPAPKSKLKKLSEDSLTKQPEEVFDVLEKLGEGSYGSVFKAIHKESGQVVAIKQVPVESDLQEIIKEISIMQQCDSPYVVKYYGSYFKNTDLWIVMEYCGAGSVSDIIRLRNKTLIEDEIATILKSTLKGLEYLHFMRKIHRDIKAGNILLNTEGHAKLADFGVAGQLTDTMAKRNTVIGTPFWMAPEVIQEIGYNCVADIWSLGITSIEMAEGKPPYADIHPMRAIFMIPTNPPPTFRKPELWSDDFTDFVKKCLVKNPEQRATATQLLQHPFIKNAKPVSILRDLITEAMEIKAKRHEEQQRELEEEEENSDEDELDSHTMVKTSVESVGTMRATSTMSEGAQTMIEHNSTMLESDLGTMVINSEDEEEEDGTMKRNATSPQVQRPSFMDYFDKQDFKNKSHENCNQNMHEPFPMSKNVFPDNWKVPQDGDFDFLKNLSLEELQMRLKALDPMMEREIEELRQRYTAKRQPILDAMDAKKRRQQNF

UniProt Q9NSY1 = molecular target: UniProt Q9NSY1
PIP4K2A = molecular target: T4, PIP4K2A (UniProt P48426)
T4 sequence (whole entry): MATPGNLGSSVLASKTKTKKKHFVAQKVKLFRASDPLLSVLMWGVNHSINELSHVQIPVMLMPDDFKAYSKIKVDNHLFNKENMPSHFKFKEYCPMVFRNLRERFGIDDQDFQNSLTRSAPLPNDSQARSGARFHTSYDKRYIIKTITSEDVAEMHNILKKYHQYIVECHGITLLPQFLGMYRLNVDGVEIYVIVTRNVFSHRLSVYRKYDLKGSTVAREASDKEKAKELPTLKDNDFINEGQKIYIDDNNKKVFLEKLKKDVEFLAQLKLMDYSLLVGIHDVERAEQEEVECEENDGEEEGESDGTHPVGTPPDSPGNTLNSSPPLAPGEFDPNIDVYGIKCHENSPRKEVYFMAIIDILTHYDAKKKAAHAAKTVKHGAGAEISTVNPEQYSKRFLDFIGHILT

DDR1 = DDR1 (UniProt Q08345)
DDR1, sequence (Q08345 whole entry): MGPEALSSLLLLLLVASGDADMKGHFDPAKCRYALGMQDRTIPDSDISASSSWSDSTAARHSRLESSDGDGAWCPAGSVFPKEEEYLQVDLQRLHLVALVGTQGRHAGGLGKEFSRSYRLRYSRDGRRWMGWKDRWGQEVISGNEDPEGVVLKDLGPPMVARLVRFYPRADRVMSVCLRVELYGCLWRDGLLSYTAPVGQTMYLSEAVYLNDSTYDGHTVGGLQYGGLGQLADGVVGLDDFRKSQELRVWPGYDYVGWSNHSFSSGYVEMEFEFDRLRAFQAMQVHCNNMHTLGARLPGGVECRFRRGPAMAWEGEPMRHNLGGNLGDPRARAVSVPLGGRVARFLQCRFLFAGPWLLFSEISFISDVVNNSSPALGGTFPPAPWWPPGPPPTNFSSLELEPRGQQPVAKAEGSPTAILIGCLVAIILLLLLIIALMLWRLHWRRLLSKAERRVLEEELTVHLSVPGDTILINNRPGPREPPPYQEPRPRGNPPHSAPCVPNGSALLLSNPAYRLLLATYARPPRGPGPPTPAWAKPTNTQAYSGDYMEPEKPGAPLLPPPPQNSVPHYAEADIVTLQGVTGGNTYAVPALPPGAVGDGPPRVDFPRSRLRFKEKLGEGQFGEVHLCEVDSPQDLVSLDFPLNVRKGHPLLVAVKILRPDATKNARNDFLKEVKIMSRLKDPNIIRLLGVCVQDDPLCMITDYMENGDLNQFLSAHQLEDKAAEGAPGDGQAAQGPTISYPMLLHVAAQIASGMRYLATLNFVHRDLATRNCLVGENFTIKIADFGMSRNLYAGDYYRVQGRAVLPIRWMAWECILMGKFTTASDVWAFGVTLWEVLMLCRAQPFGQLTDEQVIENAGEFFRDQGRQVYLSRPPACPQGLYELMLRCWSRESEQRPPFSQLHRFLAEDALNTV

PRKCB, sequence (P05771 whole entry, looked up): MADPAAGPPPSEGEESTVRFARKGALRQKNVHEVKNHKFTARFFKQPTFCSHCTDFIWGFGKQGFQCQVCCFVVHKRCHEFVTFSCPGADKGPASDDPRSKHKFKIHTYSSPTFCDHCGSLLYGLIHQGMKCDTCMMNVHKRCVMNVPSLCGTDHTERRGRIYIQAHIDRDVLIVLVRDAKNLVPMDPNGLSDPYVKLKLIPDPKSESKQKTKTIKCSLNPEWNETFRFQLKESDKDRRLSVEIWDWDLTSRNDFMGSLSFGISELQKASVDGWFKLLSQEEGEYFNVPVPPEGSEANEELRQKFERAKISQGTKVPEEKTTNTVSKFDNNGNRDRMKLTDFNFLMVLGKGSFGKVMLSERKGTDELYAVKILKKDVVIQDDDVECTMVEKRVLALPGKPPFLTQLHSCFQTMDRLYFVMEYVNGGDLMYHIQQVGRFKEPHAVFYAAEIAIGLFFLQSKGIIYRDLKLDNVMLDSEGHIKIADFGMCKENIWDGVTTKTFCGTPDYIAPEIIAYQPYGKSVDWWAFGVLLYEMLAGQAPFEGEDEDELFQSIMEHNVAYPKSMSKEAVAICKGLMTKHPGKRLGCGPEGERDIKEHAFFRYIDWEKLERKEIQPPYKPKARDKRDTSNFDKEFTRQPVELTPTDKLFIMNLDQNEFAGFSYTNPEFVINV
UniProt Q9NSY1, sequence (Q9NSY1 whole entry, looked up): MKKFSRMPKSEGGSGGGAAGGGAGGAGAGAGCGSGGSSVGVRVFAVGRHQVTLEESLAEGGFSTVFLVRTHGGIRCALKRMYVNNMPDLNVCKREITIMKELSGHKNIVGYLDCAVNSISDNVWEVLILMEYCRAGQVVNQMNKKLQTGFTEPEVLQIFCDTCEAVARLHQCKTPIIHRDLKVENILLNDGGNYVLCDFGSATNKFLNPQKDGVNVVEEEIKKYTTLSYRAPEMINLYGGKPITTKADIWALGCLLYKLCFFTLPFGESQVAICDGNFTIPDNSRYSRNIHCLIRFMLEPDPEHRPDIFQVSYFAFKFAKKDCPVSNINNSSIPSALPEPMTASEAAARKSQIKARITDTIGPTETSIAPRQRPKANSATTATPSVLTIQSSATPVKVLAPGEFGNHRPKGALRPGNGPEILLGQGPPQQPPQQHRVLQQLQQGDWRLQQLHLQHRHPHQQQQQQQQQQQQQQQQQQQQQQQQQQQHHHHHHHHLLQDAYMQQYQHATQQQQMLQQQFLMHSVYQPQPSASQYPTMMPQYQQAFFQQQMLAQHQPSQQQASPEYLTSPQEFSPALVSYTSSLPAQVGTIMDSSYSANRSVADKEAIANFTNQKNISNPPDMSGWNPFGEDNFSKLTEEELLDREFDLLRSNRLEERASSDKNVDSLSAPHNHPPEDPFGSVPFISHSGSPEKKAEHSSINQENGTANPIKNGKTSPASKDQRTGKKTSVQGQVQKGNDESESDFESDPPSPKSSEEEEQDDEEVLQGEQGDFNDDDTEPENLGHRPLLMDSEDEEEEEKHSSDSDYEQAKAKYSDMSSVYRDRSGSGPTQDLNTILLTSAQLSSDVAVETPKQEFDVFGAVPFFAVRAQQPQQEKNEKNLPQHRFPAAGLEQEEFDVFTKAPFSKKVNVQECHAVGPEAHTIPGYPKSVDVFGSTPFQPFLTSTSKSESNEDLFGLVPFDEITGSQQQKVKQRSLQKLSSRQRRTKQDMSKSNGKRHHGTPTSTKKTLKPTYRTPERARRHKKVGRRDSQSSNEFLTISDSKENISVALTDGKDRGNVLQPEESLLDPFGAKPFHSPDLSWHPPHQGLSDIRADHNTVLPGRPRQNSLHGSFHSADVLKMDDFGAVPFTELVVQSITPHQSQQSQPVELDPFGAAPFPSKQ

pIC50 (UniProt O43318): < 4.52
pIC50 (MERTK): < 4.52
pIC50 (PRKCB): < 4.52
pIC50 (UniProt Q13188): < 4.52
pIC50 (UniProt Q9NSY1): < 4.52
pIC50 (PIP4K2A): < 4.52
pIC50 (DDR1): < 4.52
Compound: CCc1cnn2c(NCc3ccc[n+]([O-])c3)cc(N3CCCC[C@H]3CCO)nc12 [dinaciclib]
